How the values were obtained:
[1] = biological target: PKCβ (Homo sapiens, UniProt P05771); conditions: cited from earlier work
[2] = biological target: PKCδ (Homo sapiens, UniProt Q05655); conditions: cited from earlier work
[3] = biological target: T1, PKCζ (Homo sapiens, UniProt Q05513); conditions: cited from earlier work
T1 sequence (Q05513 1-592): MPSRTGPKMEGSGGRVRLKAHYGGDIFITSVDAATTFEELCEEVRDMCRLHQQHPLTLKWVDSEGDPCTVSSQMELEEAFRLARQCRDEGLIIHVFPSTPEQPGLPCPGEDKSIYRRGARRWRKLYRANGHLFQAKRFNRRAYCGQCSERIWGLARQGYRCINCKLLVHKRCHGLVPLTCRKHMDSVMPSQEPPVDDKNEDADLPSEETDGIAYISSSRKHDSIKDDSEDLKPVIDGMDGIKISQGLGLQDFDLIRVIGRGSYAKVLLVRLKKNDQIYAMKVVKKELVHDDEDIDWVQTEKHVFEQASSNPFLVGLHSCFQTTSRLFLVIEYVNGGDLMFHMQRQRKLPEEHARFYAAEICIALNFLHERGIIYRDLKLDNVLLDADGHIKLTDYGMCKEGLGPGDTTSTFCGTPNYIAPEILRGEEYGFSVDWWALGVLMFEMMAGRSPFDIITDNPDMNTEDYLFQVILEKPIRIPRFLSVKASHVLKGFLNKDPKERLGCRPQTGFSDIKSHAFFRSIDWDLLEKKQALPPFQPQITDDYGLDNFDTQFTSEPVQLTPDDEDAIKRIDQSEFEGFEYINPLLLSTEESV

[4] = test system: cardiac myocytes; experiment: Measurement of myocardial contractility (video-based edge detection); type: cell-based, Sprague-Dawley (SD) rat; conditions: 100 nM for 30 minutes
From the text: The sequence of a peptide inhibitor was designed based on the experiment of Daria Mochly-Rosen^11-13. The amino acid sequences of the protein kinase C ζ (PKCζ) inhibitor are described as SEQ ID NO: 1 and SEQ ID NO: 2. They are called the pseudosubstrate region. In contrast, the amino acid sequence of the PKCα inhibitor is QLVIAN. Each peptide inhibitor is linked at the amino-end with the TAT peptide YGRKKRRQRRR via the GGG bridge. As a normal group for comparison, a peptide comprising the TAT amino acid sequence was used. Cardiac myocytes isolated from 10-week-old Sprague-Dawley (SD) rat were used to test the efficiency of the peptide inhibitor. […]
The cardiac myocytes were isolated based on the modification of the Ren's method^14. 10-week-old male SD rats (250-300 g) were used for the experiment. After injecting heparin (50 unit), the test animal was anesthetized with isoflurane and the heart was taken out immediately. The heart was connected to a pump and Tyrode's buffer [137 mM NaCl, 5.4 mM KCl, 1 mM MgCl2, 10 mM glucose, 10 mM HEPES, 10 mM 2,3-butanedione monoxime and 5 mM taurine (Sigma), pH 7.4] at 37° C. was supplied through the coronary artery. After removing blood from the heart by pumping for 5 minutes, intercellular adhesion molecules were digested by perfusing enzyme solution [collagenase type B (0.35 U/mL, Roche), hyaluronidase (0.1 mg/mL, Sigma)] through the coronary artery. After sufficient digestion through perfusion for 20 minutes, the heart was stabilized and protected from the enzymes in 0.5% BSA solution. In all the experiments, only the rod-shaped, healthy cardiac myocytes with a distinct striation pattern were used.
The entire culture procedure was carried out in a class II flow hood. Culture dishes were precoated for 1 hour with 40 µg/mL mouse laminin (BD Biosciences) at room temperature. The isolated cardiac myocytes were cultured in Dulbecco's minimal essential medium (HyClone) containing 50 units/mL penicillin, 50 μg/mL streptomycin, 5 mM taurine, […] and […]. The cardiac myocytes were stabilized for 2 hours in a 5% CO2 incubator at 37° C., and then myocardial contractility was measured.
Myocardial contractility was measured using a video-based edge detection system (IonOptix; Milton, Mass.)^15. The cultured cardiac myocytes were placed on a over slip and observed under an inverted microscope (Nikon Eclipse TE-100F). To the cardiac myocytes, Tyrode's buffer (137 mM NaCl, 5.4 mM KCl, 1 mM MgCl2, 10 mM glucose and 10 mM HEPES, pH 7.4) was continuously supplied (at 37° C., at a rate of ˜1 mL/min). The cells were stimulated with a voltage of 30 V at 1 Hz. A STIM-AT stimulator/thermostat was used. […] The motion was recorded at every 8.3 ms. The recorded motion of the cardiac myocytes was analyzed with the soft-edge software (IonOptix).

Chain of PKCδ (Q05655 whole entry): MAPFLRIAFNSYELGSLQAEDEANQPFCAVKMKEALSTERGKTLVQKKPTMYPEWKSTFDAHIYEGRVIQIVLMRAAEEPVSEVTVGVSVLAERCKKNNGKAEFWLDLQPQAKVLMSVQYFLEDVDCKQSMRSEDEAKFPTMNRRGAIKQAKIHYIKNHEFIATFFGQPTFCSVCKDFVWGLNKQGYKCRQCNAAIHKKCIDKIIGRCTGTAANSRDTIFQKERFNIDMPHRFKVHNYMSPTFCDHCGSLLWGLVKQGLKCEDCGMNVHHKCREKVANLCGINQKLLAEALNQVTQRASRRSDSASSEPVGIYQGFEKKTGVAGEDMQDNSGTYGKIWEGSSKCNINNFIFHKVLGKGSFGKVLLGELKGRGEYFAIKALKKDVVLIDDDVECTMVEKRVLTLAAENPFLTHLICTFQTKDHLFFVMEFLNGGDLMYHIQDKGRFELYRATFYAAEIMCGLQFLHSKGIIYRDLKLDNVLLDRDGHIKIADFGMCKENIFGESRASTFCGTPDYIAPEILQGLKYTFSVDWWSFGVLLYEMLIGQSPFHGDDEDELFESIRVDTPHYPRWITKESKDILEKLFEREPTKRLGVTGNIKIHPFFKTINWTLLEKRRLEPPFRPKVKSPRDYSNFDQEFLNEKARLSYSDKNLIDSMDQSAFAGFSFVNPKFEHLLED
Chain of PKCβ (P05771 whole entry, species assumed): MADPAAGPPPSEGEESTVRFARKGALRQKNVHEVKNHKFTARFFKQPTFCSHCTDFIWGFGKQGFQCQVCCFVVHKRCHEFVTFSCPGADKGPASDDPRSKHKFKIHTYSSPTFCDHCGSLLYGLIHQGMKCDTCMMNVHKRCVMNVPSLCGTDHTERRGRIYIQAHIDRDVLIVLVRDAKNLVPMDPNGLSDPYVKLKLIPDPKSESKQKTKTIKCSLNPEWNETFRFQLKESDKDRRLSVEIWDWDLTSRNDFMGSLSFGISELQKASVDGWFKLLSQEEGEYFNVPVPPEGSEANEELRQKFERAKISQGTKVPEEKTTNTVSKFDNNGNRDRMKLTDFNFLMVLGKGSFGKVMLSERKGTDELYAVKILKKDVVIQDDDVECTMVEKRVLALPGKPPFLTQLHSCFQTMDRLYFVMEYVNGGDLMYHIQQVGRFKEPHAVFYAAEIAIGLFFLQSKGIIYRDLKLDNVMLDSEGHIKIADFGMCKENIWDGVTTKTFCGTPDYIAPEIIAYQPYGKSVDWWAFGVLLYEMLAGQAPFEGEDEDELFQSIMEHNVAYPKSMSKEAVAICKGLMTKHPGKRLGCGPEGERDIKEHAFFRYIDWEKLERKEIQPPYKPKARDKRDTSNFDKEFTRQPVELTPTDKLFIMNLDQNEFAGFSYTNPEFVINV

CCOC(=O)c1c(NC(C)=O)sc(/C(C)=N/O)c1-c1ccccc1 [Chemical Formula II, ethyl (5E)-2-acetylimino-5-[1-(hydroxyamino)ethylidene]-4-phenyl-thiophene-3-carboxylate]
IC50 [1]: > 100 µM | IC50 [2]: > 100 µM

CN1CCN(Cc2c3ccccc3cc3ccccc23)CC1 [Chemical Formula III, 1-(anthracen-9-ylmethyl)-4-methyl-piperazine]
IC50 [1]: 50 µM | IC50 [3]: 25 µM | IC50 [2]: > 100 µM

CCOC(=O)c1c(NC(=S)N2CCN(S(C)(=O)=O)CC2)sc(C)c1-c1ccccc1 [Chemical Formula IV]
inhibitory effect relative to that of the compound of Chemical Formula II ([3]; tested at 100 μM): about 1.2 times

CN1CCN(c2cccc3[nH]c(-c4n[nH]c5cc(-c6ccc(CN)cc6)ccc45)nc23)CC1 [Chemical Formula X]
increase of maximal rate of contraction [4]: 1.2 times | increase of maximal rate of relaxation [4]: 1.2 times | increased maximal myocardial contractility as compared to the normal group [4]: about 1.4 times

CN1CCN(c2cccc3[nH]c(-c4n[nH]c5cc(-c6ccc(N)cc6)ccc45)nc23)CC1 [Chemical Formula IX]
increase of maximal rate of contraction [4]: ≥ 2 times | increase of maximal rate of relaxation [4]: ≥ 2 times | increased maximal myocardial contractility as compared to the normal group [4]: about 2.4 times

From patent US20110245179A1, “Composition for Prevention or Treatment of Heart Failure” (priority 2008, published 2011)
